Patent US20240158446A1, “CYCLIC COMPOUND HAVING SELECTIVE INHIBITORY ACTION ON KRAS OVER HRAS AND NRAS” (CHUGAI SEIYAKU KABUSHIKI KAISHA, priority 2021, published 2024)
Where two headings read alike, the source gives them in different places.

How the values were obtained:
[1] = target: GDP-bound KRAS wild-type protein (Homo sapiens, UniProt P01116); test: Binding to KRAS by surface plasmon resonance (SPR), Single Cycle Kinetics; details: SPR, Single Cycle Kinetics
[2] = target: GDP-bound NRAS wild-type protein (Homo sapiens, UniProt P01111); test: Binding to NRAS by surface plasmon resonance (SPR), Single Cycle Kinetics; details: SPR; for NRAS/KRAS (ratio of KD value for NRAS to KD value for KRAS): GDP-bound NRAS wild-type protein vs GDP-bound KRAS wild-type protein
[3] = target: GDP-bound HRAS wild-type protein (Homo sapiens, UniProt P01112); test: Binding to HRAS by surface plasmon resonance (SPR), Single Cycle Kinetics; details: SPR; for HRAS/KRAS (ratio of KD value for HRAS to KD value for KRAS): GDP-bound HRAS wild-type protein vs GDP-bound KRAS wild-type protein
[4] = test system: human lung cancer strain NCI-H441;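 further: cell proliferation inhibition after four days measured by CellTiter-Glo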
[5] = 1:1 binding model, GDP-bound KRAS wild-type protein, read-out: KRAS KD
[6] = 1:1 binding model, read-out: KD value with respect to GDP-bound KRAS wild-type protein
[7] = GDP-bound KRAS wild-type protein, read-out: KRAS KD
[8] = read-out: NCI-H441 cell proliferation inhibitory activity, 50% proliferation inhibitory concentration (IC50 value), NCI-H441, four days, CellTiter-Glo

Chain of GDP-bound NRAS wild-type protein (P01111 whole entry): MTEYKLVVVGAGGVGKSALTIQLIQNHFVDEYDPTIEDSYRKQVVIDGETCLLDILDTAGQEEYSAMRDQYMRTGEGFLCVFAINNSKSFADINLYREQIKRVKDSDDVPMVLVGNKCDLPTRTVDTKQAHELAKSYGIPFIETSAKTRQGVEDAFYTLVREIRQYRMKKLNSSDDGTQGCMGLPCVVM
Chain of GDP-bound KRAS wild-type protein (P01116 whole entry): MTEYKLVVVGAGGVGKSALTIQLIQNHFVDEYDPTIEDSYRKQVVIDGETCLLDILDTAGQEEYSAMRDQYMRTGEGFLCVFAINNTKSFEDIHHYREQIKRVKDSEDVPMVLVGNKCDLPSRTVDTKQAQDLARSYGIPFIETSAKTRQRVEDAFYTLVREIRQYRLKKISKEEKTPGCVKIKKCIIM
Chain of GDP-bound HRAS wild-type protein (P01112 whole entry): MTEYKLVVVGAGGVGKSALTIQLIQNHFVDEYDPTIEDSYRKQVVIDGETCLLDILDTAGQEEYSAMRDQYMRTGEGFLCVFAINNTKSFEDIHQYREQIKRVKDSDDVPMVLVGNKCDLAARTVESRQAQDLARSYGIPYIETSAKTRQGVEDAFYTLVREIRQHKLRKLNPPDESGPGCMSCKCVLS

Kd [1, 5] | IC50 [4] | Kd [1, 7] | IC50 [4, 8] | Structure (SMILES) | NRAS/KRAS (ratio of KD value for NRAS to KD value for KRAS) ([2]; KD ratio class) | HRAS/KRAS (ratio of KD value for HRAS to KD value for KRAS) ([3]; KD ratio class) | Kd [1, 6] | NRAS/KRAS (ratio of KD value for NRAS to KD value for KRAS) [2] | ratio of the KD value with respect to GDP-bound NRAS wild-type protein to the KD value with respect to KRAS [2] | HRAS/KRAS (ratio of KD value for HRAS to KD value for KRAS) [3] | ratio of the KD value with respect to GDP-bound HRAS wild-type protein to the KD value with respect to KRAS [3]
0.073 nM | 3.7 nM | – | – | CCCC[C@H]1C(=O)N[C@@H]([C@@H](C)CC)C(=O)N(C)CC(=O)N(C)[C@H]2C/C=C\CCN(C2=O)[C@@H](Cc2ccc(C(F)(F)F)cc2)C(=O)N(C)CC(=O)N[C@@H](CCc2cc(F)c(C(F)(F)F)c(F)c2)C(=O)N2C[C@H](OCC)C[C@H]2C(=O)NC2(CCCC2)C(=O)N(C)[C@@H](C2CCCC2)C(=O)N(C)[C@H](C(=O)N(C)C)CC(=O)N1C [PP1397, (2S,8S,12R,14S,20S,23S,27S,30S,36S,38Z)-27-butyl-20-cyclopentyl-8-[2-[3,5-difluoro-4-(trifluoromethyl)phenyl]ethyl]-12-ethoxy-N,N,4,19,22,26,32,35-octamethyl-30-[(1S)-1-methylpropyl]-3,6,9,15,18,21,25,28,31,34,42-undecaoxo-2-[[4-(trifluoromethyl)phenyl]methyl]spiro[1,4,7,10,16,19,22,26,29,32,35-undecazatricyclo[34.5.1.0^10,14]dotetracont-38-ene-17,1′-cyclopentane]-23-carboxamide] | A (a compound having 10 or more and less than 20 is denoted as A) | A (a compound having 10 or more and less than 20 is denoted as A) | – | – | – | – | –
– | – | 0.048 nM | 2.6 nM | CC[C@H](C)[C@@H]1NC(=O)[C@@H]2CCCCCc3ccc(cc3)C[C@@H](C(=O)N(C)CC(=O)N[C@@H](CCc3ccc(C(F)(F)F)c(OC)c3)C(=O)N3C[C@H](OC(C)C)C[C@H]3C(=O)NC3(CC(C)(C)C3)C(=O)N(C)[C@@H](C3CCCC3)C(=O)N(C)[C@H](C(=O)N(C)C)CC(=O)N2C)N2CC/C=C\C[C@@H](C2=O)N(C)C(=O)CN(C)C1=O [PP3072] | – | – | – | A (a compound having 10 or more and less than 20 is denoted as A) | A (a compound having 10 or more and less than 20 is denoted as A) | B (a compound having 3 or more and less than 10 is denoted as B) | B (a compound having 3 or more and less than 10 is denoted as B)
– | – | 0.06 nM | 2.5 nM | CCC[C@H]1C(=O)N[C@@H]([C@@H](C)CC)C(=O)N(C)CC(=O)N(C)[C@H]2C/C=C\CCN(C2=O)[C@@H](Cc2ccc(C(F)(F)F)cc2)C(=O)N(C)CC(=O)N[C@@H](CCc2ccc(C(F)(F)F)c(OC)c2)C(=O)N2C[C@H](OCC)C[C@H]2C(=O)N(C)C2(CCC2)C(=O)N(C)[C@@H](C2CCCC2)C(=O)N(C)[C@H](C(=O)N2CCCC2)CC(=O)N1C [PP3105, (2S,8S,12R,14S,20S,23S,27S,30S,36S,38Z)-20-cyclopentyl-12-ethoxy-8-[2-[3-methoxy-4-(trifluoromethyl)phenyl]ethyl]-4,16,19,22,26,32,35-heptamethyl-30-[(1S)-1-methylpropyl]-27-propyl-23-(pyrrolidine-1-carbonyl)-2-[[4-(trifluoromethyl)phenyl]methyl]spiro[1,4,7,10,16,19,22,26,29,32,35-undecazatricyclo[34.5.1.0^10,14]dotetracont-38-ene-17,1′-cyclobutane]-3,6,9,15,18,21,25,28,31,34,42-undecone] | – | – | 0.06 nM | AA (a compound having 20 or more is denoted as AA) | AA (a compound having 20 or more is denoted as AA) | A (a compound having 10 or more and less than 20 is denoted as A) | A (a compound having 10 or more and less than 20 is denoted as A)
1.3 nM | 144 nM | – | – | CCO[C@@H]1C[C@H]2C(=O)NC3(CCC3)C(=O)N(C)[C@@H](C(CC)CC)C(=O)N(C)[C@H](C(=O)N(C)C)CC(=O)N(C)[C@@H](COC)C(=O)N[C@@H]([C@@H](C)CC)C(=O)N(C)CC(=O)N(C)[C@H]3C/C=C\CCN(C3=O)[C@@H](Cc3ccc(C(F)(F)F)cc3)C(=O)N(C)CC(=O)N[C@@H](CCc3ccc4sccc4c3)C(=O)N2C1 [PP1229] | A (a compound having 10 or more and less than 20 is denoted as A) | A (a compound having 10 or more and less than 20 is denoted as A) | – | – | – | – | –
0.069 nM | 7.3 nM | – | – | CCO[C@@H]1C[C@H]2C(=O)NC3(CCC3)C(=O)N(C)[C@@H](C3CCCC3)C(=O)N(C)[C@H](C(=O)N(C)C)CC(=O)N(C)[C@@H](CC3CCCC3)C(=O)N[C@@H]([C@@H](C)CC)C(=O)N(C)CC(=O)N(C)[C@H]3C/C=C\CCN(C3=O)[C@@H](Cc3ccc(C(F)(F)F)cc3)C(=O)N(C)CC(=O)N[C@@H](CCc3ccc(C(F)(F)F)c(OC)c3)C(=O)N2C1 [PP1248, (2S,8S,12R,14S,20S,23S,27S,30S,36S,38Z)-20-cyclopentyl-27-(cyclopentylmethyl)-12-ethoxy-8-[2-[3-methoxy-4-(trifluoromethyl)phenyl]ethyl]-N,N,4,19,22,26,32,35-octamethyl-30-[(1S)-1-methylpropyl]-3,6,9,15,18,21,25,28,31,34,42-undecaoxo-2-[[4-(trifluoromethyl)phenyl]methyl]spiro[1,4,7,10,16,19,22,26,29,32,35-undecazatricyclo[34.5.1.0^10,14]dotetracont-38-ene-17,1′-cyclobutane]-23-carboxamide] | A (a compound having 10 or more and less than 20 is denoted as A) | A (a compound having 10 or more and less than 20 is denoted as A) | – | – | – | – | –

Structure (SMILES) | Kd [1, 5] | IC50 [4] | Kd [1, 7] | IC50 [4, 8] | NRAS/KRAS (ratio of KD value for NRAS to KD value for KRAS) ([2]; KD ratio class) | HRAS/KRAS (ratio of KD value for HRAS to KD value for KRAS) ([3]; KD ratio class) | Kd [1, 6] | NRAS/KRAS (ratio of KD value for NRAS to KD value for KRAS) [2] | ratio of the KD value with respect to GDP-bound NRAS wild-type protein to the KD value with respect to KRAS [2] | HRAS/KRAS (ratio of KD value for HRAS to KD value for KRAS) [3] | ratio of the KD value with respect to GDP-bound HRAS wild-type protein to the KD value with respect to KRAS [3]
CCC[C@H]1C(=O)N[C@@H]([C@@H](C)CC)C(=O)N(C2CC2)CC(=O)N(C)[C@H]2C/C=C\CCN(C2=O)[C@@H](Cc2ccc(C(F)(F)F)cc2)C(=O)N(C)CC(=O)N[C@@H](CCc2ccc(C(F)(F)F)c(OC)c2)C(=O)N2C[C@H](OCC)C[C@H]2C(=O)N(C)C2(CCC2)C(=O)N(C)[C@@H](C2CCCC2)C(=O)N(C)[C@H](C(=O)N2CCCCC2)CC(=O)N1C [PP3095, (2S,8S,12R,14S,20S,23S,27S,30S,36S,38Z)-20-cyclopentyl-32-cyclopropyl-12-ethoxy-8-[2-[3-methoxy-4-(trifluoromethyl)phenyl]ethyl]-4,16,19,22,26,35-hexamethyl-30-[(1S)-1-methylpropyl]-23-(piperidine-1-carbonyl)-27-propyl-2-[[4-(trifluoromethyl)phenyl]methyl]spiro[1,4,7,10,16,19,22,26,29,32,35-undecazatricyclo[34.5.1.0^10,14]dotetracont-38-ene-17,1′-cyclobutane]-3,6,9,15,18,21,25,28,31,34,42-undecone] | – | – | 0.67 nM | 33.7 nM | – | – | 0.67 nM | A (a compound having 10 or more and less than 20 is denoted as A) | A (a compound having 10 or more and less than 20 is denoted as A) | A (a compound having 10 or more and less than 20 is denoted as A) | A (a compound having 10 or more and less than 20 is denoted as A)
